# Literature values as cited in publication PMC12385147, “Discovery of Novel 2-Substituted Aniline Pyrimidine Based Derivatives as Potent Mer/c-Met Dual Inhibitors with Improvement Bioavailability” (Biomolecules, 2025).
# How the values were obtained:
# [1] = cited from earlier work
# xenograft models = tested on: xenograft models; set-up: method as in PMID 29554921; conditions: cited from earlier work
Structure (SMILES),t1/2 in human hepatocytes [1] [h],tumor volume reduction vs. control (xenograft models)
CCCCNc1ncc2c(-c3ccc(CN4CCN(C)CC4)cc3)cn([C@H]3CC[C@H](O)CC3)c2n1 [UNC2025],1.13,–
CCCCNc1ncc(-c2ccc(CN3CCOCC3)cn2)c(N[C@H]2CC[C@H](O)CC2)n1 [UNC2250],–,~ 60%
